Species on record: Rattus norvegicus
Assay: DrugMatrix - Regimen: Daily Repeat
Format: toxicity, organism-based, Sprague-Dawley
Set-up: regimen Daily Repeat, gender Male, age 6-8 weeks
Conditions: in vivo, po, route oral GAVAGE, vehicle 100 % WATER; for ABSOLUTE BASOPHIL / ABSOLUTE EOSINOPHIL / ABSOLUTE LYMPHOCYTE / ABSOLUTE MONOCYTE / ABSOLUTE SEGMENTED NEUTROPHIL / BASOPHIL / EOSINOPHIL / ERYTHROCYTE COUNT / HEMATOCRIT / HEMOGLOBIN / LEUKOCYTE COUNT / LYMPHOCYTE / MEAN CORPUSCULAR HEMOGLOBIN / MEAN CORPUSCULAR HEMOGLOBIN CONCENTRATION / MEAN CORPUSCULAR VOLUME / MONOCYTE / NEUTROPHIL / NUCLEATED RED BLOOD CELLS / PLATELET COUNT: tissue Blood
[1] = 0 mg/kg, 120 h, tissue Plasma, dose level Control, time 5 day
[2] = 25 mg/kg, 72 h, dose level Low, time 3 day
[3] = 25 mg/kg, 72 h, tissue Plasma, dose level Low, time 3 day
[4] = 25 mg/kg, 120 h, dose level Low, time 5 day
[5] = 25 mg/kg, 120 h, tissue Plasma, dose level Low, time 5 day

CCC1(c2ccccc2)C(=O)NC(=O)NC1=O [PHENOBARBITAL]
POTASSIUM [1]: 6 MEQ/L
SODIUM [1]: 145 MEQ/L
TOTAL BILIRUBIN [1]: 0.13 mg/dL
TOTAL PROTEIN [1]: 5.82 G/DL
URIC ACID [1]: 0.62 mg/dL
ABSOLUTE BASOPHIL [2]: 0 CELLS/uL
ABSOLUTE EOSINOPHIL [2]: 0 CELLS/uL
ABSOLUTE LYMPHOCYTE [2]: 9305.33 CELLS/uL
ABSOLUTE MONOCYTE [2]: 110 CELLS/uL
ABSOLUTE SEGMENTED NEUTROPHIL [2]: 784.67 CELLS/uL
BASOPHIL [2]: 0%
EOSINOPHIL [2]: 0%
ERYTHROCYTE COUNT [2]: 5.23 x10E6/uL
HEMATOCRIT [2]: 33.43%
HEMOGLOBIN [2]: 13.03 G/DL
LEUKOCYTE COUNT [2]: 10.2 x10E3/uL
LYMPHOCYTE [2]: 92.33%
MEAN CORPUSCULAR HEMOGLOBIN [2]: 24.97 pg
MEAN CORPUSCULAR HEMOGLOBIN CONCENTRATION [2]: 39 G/DL
MEAN CORPUSCULAR VOLUME [2]: 63.97 fL
MONOCYTE [2]: 0.67%
NEUTROPHIL [2]: 7%
NUCLEATED RED BLOOD CELLS [2]: 0 /100WBC
PLATELET COUNT [2]: 972.33 x10E3/uL
ALANINE AMINOTRANSFERASE [3]: 52.33 u/L
ALBUMIN [3]: 4 G/DL
ALKALINE PHOSPHATASE [3]: 326.67 u/L
ASPARTATE AMINOTRANSFERASE [3]: 74.67 u/L
BLOOD UREA NITROGEN [3]: 12 mg/dL
CARBON DIOXIDE [3]: 35 mmol/L
CHLORIDE [3]: 97.5 MEQ/L
CHOLESTEROL [3]: 87.67 mg/dL
CREATINE PHOSPHOKINASE [3]: 212 u/L
CREATININE [3]: 0.15 mg/dL
GLUCOSE [3]: 146.33 mg/dL
LACTATE DEHYDROGENASE [3]: 153.33 u/L
LIPASE [3]: 12 u/L
PHOSPHORUS [3]: 11.73 mg/dL
POTASSIUM [3]: 6.16 MEQ/L
SODIUM [3]: 143.95 MEQ/L
TOTAL BILIRUBIN [3]: 0.2 mg/dL
TOTAL PROTEIN [3]: 5.83 G/DL
URIC ACID [3]: 0.83 mg/dL
ABSOLUTE BASOPHIL [4]: 0 CELLS/uL
ABSOLUTE EOSINOPHIL [4]: 0 CELLS/uL
ABSOLUTE LYMPHOCYTE [4]: 5785.67 CELLS/uL
ABSOLUTE MONOCYTE [4]: 18.33 CELLS/uL
ABSOLUTE SEGMENTED NEUTROPHIL [4]: 262.67 CELLS/uL
BASOPHIL [4]: 0%
EOSINOPHIL [4]: 0%
ERYTHROCYTE COUNT [4]: 5.55 x10E6/uL
HEMATOCRIT [4]: 34.67%
HEMOGLOBIN [4]: 13.1 G/DL
LEUKOCYTE COUNT [4]: 6.07 x10E3/uL
LYMPHOCYTE [4]: 94.33%
MEAN CORPUSCULAR HEMOGLOBIN [4]: 23.57 pg
MEAN CORPUSCULAR HEMOGLOBIN CONCENTRATION [4]: 37.77 G/DL
MEAN CORPUSCULAR VOLUME [4]: 62.47 fL
MONOCYTE [4]: 0.33%
NEUTROPHIL [4]: 5.33%
NUCLEATED RED BLOOD CELLS [4]: 0 /100WBC
PLATELET COUNT [4]: 1109.67 x10E3/uL
ALANINE AMINOTRANSFERASE [5]: 55.33 u/L
ALBUMIN [5]: 4.13 G/DL
ALKALINE PHOSPHATASE [5]: 380.67 u/L
ASPARTATE AMINOTRANSFERASE [5]: 85 u/L
BLOOD UREA NITROGEN [5]: 17.67 mg/dL
CARBON DIOXIDE [5]: 32.67 mmol/L
CHLORIDE [5]: 100 MEQ/L
CHOLESTEROL [5]: 89.67 mg/dL
CREATINE PHOSPHOKINASE [5]: 357 u/L

— ChEMBL document CHEMBL3885881, “DrugMatrix”
